Data on eleven compounds can be found in ChEMBL document CHEMBL1201862, “PubChem BioAssay data set” (2004).

SMILES strings stand for the structures.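 Cells were grown in 96-well plates and exposed to each compound for 48 hours at five concentrations; endpoints were interpolated linearly between bracketing concentrations, or set to the highest concentration if not reached. GI50 is the concentration that inhibits growth by half.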 Active and inactive are the calls of the source. No stated cut-off is given here; in the data, active = GI50 up to about 1.1 µM and inactive = higher. Where only a bound is given, the exact number is not on record here.

Among the test systems are HCT-116; K562; A549; SW-620; Malme-3M; NCI-H522; CAKI-1; RPMI-8226; EKVX; LOX IMVI; U-251; SK-MEL-2; UACC-62; RXF 393; NCI-H23; SNB-75; OVCAR-3; HCC 2998; SR; TK-10.
Common to all, as to assay: growth of human tumour cells (NCI), 48 h

Turning to `O=NN1C(c2ccccc2)CNC(=O)CC1c1ccccc1` (centres undefined), the GI50 was 38.5 µM (inactive) in the assay on HCT-116; 22.6 µM (inactive) in the assay on K562; 44.5 µM (inactive) in the assay with A549; 38.1 µM (inactive) with SW-620; 50.9 µM (inactive) with Malme-3M; 20.3 µM (inactive) in the assay with NCI-H522. Moreover, the GI50 was 59.6 µM (inactive) in the assay with CAKI-1; 34 µM (inactive) with RPMI-8226; 35.4 µM (inactive) with EKVX; 46.7 µM (inactive) in the assay on LOX IMVI; 55.3 µM (inactive) with U-251; 33.7 µM (inactive) with SK-MEL-2. In addition, the GI50 is 44.4 µM (inactive) with UACC-62; 22.2 µM (inactive) in the assay on RXF 393; 33.1 µM (inactive) with NCI-H23; 20.8 µM (inactive) in the assay with SNB-75; 22.8 µM (inactive) in the assay with OVCAR-3; 27.3 µM (inactive) in the assay on HCC 2998.
In the case of `NC12CCC(CC1=O)C2` (centres undefined), the GI50 in the assay with HCT-116, in the assay on K562, in the assay with A549, in the assay on SR, with SW-620 and with Malme-3M was > 100 µM (inactive) each time. Also, the GI50 in the assay with RPMI-8226, in the assay on EKVX, in the assay on LOX IMVI, in the assay with U-251, in the assay on SK-MEL-2 and in the assay with TK-10 was > 100 µM (inactive) throughout. In addition, the GI50 in the assay with UACC-62, with NCI-H23, in the assay with SNB-75, in the assay with OVCAR-3 and in the assay on HCC 2998 was > 100 µM (inactive) in each case.
Consider `CO/C(=N\N=C\c1ccc(Cl)c(Cl)c1)c1ccncc1`, for which the GI50 was > 10 µM (inactive) in the assay on HCT-116; > 10 µM (inactive) with K562; > 10 µM (inactive) in the assay with A549; 2.75 µM (inactive) in the assay with SR; > 10 µM (inactive) with SW-620; > 10 µM (inactive) with Malme-3M. Besides, the GI50 in the assay on CAKI-1, in the assay on RPMI-8226, with LOX IMVI, with U-251, in the assay with SK-MEL-2 and with TK-10 was > 10 µM (inactive) throughout. Besides, the GI50 in the assay with RXF 393 is > 10 µM (inactive); with NCI-H23, > 10 µM (inactive); in the assay on SNB-75, 9.86 µM (inactive); in the assay on OVCAR-3, > 10 µM (inactive); with HCC 2998, > 10 µM (inactive).
In the case of `CC(=O)N1N=C(c2ccc3ccccc3c2O)CC1c1cccs1` (centres undefined), the GI50 in the assay on HCT-116 was 9.89 µM (inactive); in the assay with K562, 4.18 µM (inactive); in the assay on A549, 13.9 µM (inactive); in the assay on SR, 3.6 µM (inactive); with SW-620, 16 µM (inactive); with Malme-3M it was 10.4 µM (inactive). Also, the GI50 is 14.9 µM (inactive) in the assay with NCI-H522; 20.1 µM (inactive) with CAKI-1; 6.55 µM (inactive) in the assay on RPMI-8226; 8.09 µM (inactive) in the assay with U-251; 19 µM (inactive) in the assay on SK-MEL-2; 25 µM (inactive) in the assay with TK-10. The GI50 is 9.31 µM (inactive) in the assay with UACC-62; 15.7 µM (inactive) with RXF 393; 20.3 µM (inactive) in the assay on NCI-H23; 25.5 µM (inactive) in the assay on SNB-75; 7.96 µM (inactive) with OVCAR-3; 21.6 µM (inactive) in the assay with HCC 2998.
In the case of `O=c1cc(-c2nc3ccccc3[nH]2)[nH]c2nc(-c3nc4ccccc4[nH]3)cc(-c3ccc(Cl)cc3)c12`, the GI50 was 17 µM (inactive) in the assay on HCT-116; 16.1 µM (inactive) in the assay with K562; 24.4 µM (inactive) in the assay on A549; 15.2 µM (inactive) with SR; 21.5 µM (inactive) in the assay on SW-620; 23 µM (inactive) in the assay with Malme-3M. The GI50 is 6.27 µM (inactive) in the assay on NCI-H522; 21.9 µM (inactive) in the assay with CAKI-1; 11.5 µM (inactive) in the assay with RPMI-8226; 23.3 µM (inactive) with EKVX; 15.5 µM (inactive) in the assay with LOX IMVI; 16.1 µM (inactive) in the assay on U-251. Further, the GI50 with SK-MEL-2 was 12.2 µM (inactive); with TK-10 it was 19.4 µM (inactive); in the assay on UACC-62, 14 µM (inactive); with RXF 393, 14.5 µM (inactive); in the assay with NCI-H23, 40.2 µM (inactive); in the assay with OVCAR-3, 19.3 µM (inactive).
`COC1C(=[N+]=[N-])C(=O)NC(=O)N1C1OC(COC(c2ccccc2)(c2ccccc2)c2ccccc2)C(O)C1O` (centres undefined): the GI50 in the assay on HCT-116 is 18.2 µM (inactive); in the assay with K562, 19.7 µM (inactive); in the assay with A549 it was 17.5 µM (inactive); in the assay with SW-620, 18.5 µM (inactive); in the assay with Malme-3M, 16.1 µM (inactive); with NCI-H522, 16.2 µM (inactive). In addition, the GI50 with CAKI-1 was 18.6 µM (inactive); with RPMI-8226, 25.2 µM (inactive); in the assay on EKVX, 19 µM (inactive); in the assay on LOX IMVI it was 15.5 µM (inactive); in the assay on U-251, 19.7 µM (inactive); in the assay on SK-MEL-2, 19.1 µM (inactive). The GI50 with UACC-62 is 15.1 µM (inactive); with NCI-H23, 18.2 µM (inactive); in the assay on SNB-75, 15 µM (inactive); in the assay on OVCAR-3, 18.7 µM (inactive); in the assay on HCC 2998, 18.4 µM (inactive).
Turning to `CCOC(=O)C(C(C)=O)C1CC=CC1` (centres undefined), the GI50 in the assay with HCT-116, in the assay on K562, with A549, in the assay on SW-620, with Malme-3M and with CAKI-1 was > 100 µM (inactive) throughout. The GI50 in the assay on RPMI-8226, in the assay on EKVX, in the assay with LOX IMVI, with U-251, with SK-MEL-2 and in the assay with TK-10 was > 100 µM (inactive) each time. Further, the GI50 in the assay with UACC-62, in the assay on RXF 393, in the assay with SNB-75, with OVCAR-3 and with HCC 2998 was > 100 µM (inactive) each time.
Consider `OC[C@@H](O)[C@H]1NC[C@@H](O)[C@H]1O`, for which the GI50 in the assay on HCT-116, in the assay on A549, with SR, with SW-620, in the assay on Malme-3M and in the assay on NCI-H522 was > 100 µM (inactive) each time. Moreover, the GI50 in the assay with CAKI-1, in the assay with RPMI-8226, with EKVX, in the assay on U-251, in the assay with TK-10 and in the assay on UACC-62 was > 100 µM (inactive) each time. Moreover, the GI50 with RXF 393, with NCI-H23, in the assay with SNB-75, in the assay on OVCAR-3 and in the assay with HCC 2998 was > 100 µM (inactive) in each case.
Regarding `CC1(C)CCC[C@@]2(C)C1C[C@H](O)[C@@]1(C)O[C@@](C)([C@H](O)CO)CCC21` (some centres undefined), the GI50 in the assay with HCT-116 was 33 µM (inactive); in the assay on K562, 26.9 µM (inactive); with A549 it was 36.2 µM (inactive); with SW-620, 47 µM (inactive); in the assay on Malme-3M, 40.6 µM (inactive); in the assay on NCI-H522, 25.9 µM (inactive). Moreover, the GI50 was 35.8 µM (inactive) in the assay on CAKI-1; 20 µM (inactive) with RPMI-8226; > 100 µM (inactive) in the assay with EKVX; 37.2 µM (inactive) in the assay with U-251; 20.7 µM (inactive) in the assay with SK-MEL-2; 22.9 µM (inactive) with TK-10. Besides, the GI50 in the assay on UACC-62 was 28.6 µM (inactive); in the assay on NCI-H23, 33.7 µM (inactive); in the assay with SNB-75, 20.1 µM (inactive); in the assay with OVCAR-3, 29.8 µM (inactive); with HCC 2998, 60.8 µM (inactive).
For the compound `O=c1c(C(c2ccccn2)c2c(O)oc3cc(O)ccc3c2=O)c(O)oc2cc(O)ccc12`, the GI50 in the assay on HCT-116, in the assay with K562, in the assay with A549, with SR, with SW-620 and in the assay with NCI-H522 was > 100 µM (inactive) in each case. Further, the GI50 in the assay with CAKI-1, in the assay on RPMI-8226, in the assay with EKVX, with LOX IMVI, with U-251 and with SK-MEL-2 was > 100 µM (inactive) each time. Also, the GI50 is > 100 µM (inactive) in the assay on TK-10; > 100 µM (inactive) with UACC-62; > 100 µM (inactive) in the assay on RXF 393; > 100 µM (inactive) in the assay with NCI-H23; 66.2 µM (inactive) with SNB-75; > 100 µM (inactive) with OVCAR-3. In addition, in the assay on HCC 2998, the GI50 is > 100 µM (inactive).
As for `CC(=O)O[C@H]1CC[C@]2(C=O)[C@H]3CC[C@]4(C)[C@@H](C5=CC(=O)OC5)CC[C@]4(O)[C@@H]3CC[C@]2(O)C1` [STROPHANTHIDIN ACETATE], the GI50 with HCT-116 was 0.11 µM (active); in the assay with K562, 0.83 µM (active); in the assay on A549, 0.0684 µM (active); in the assay on SR it was 0.528 µM (active); in the assay with SW-620 it was 0.264 µM (active); with Malme-3M it was 0.231 µM (active). Also, the GI50 in the assay with NCI-H522 was 0.0336 µM (active); with CAKI-1, 0.0536 µM (active); with RPMI-8226, 0.313 µM (active); in the assay on EKVX it was 0.225 µM (active); with LOX IMVI it was 0.222 µM (active); in the assay on U-251, 0.296 µM (active). Besides, the GI50 with SK-MEL-2 was 0.324 µM (active); with TK-10, 0.211 µM (active); in the assay with UACC-62 it was 0.353 µM (active); with NCI-H23, 0.111 µM (active); in the assay on SNB-75, 0.601 µM (active); with OVCAR-3 it was 0.0982 µM (active). In addition, in the assay on HCC 2998, the GI50 is 0.325 µM (active).
